# According to PubChem BioAssay AID1552 (Sanford-Burnham Center for Chemical Genomics, 2009):
# Active and inactive are the calls of the source. The rule behind the calls is not given here.
# Biological target: Ubiquitin-conjugating enzyme E2 N (Homo sapiens) (UniProt P61088)
# Assay: NMR detection of UBE2N ligand binding – biophysical, purified protein (AID 1552)
# Details: NMR binding to purified UBE2N
# Chain of Ubiquitin-conjugating enzyme E2 N (Homo sapiens) (P61088 whole entry, looked up): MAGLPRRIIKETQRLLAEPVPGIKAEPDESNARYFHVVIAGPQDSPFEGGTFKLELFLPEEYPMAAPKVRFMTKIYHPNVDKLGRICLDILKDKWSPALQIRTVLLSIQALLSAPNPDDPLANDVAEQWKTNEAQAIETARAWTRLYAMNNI
row,SMILES,Kd
1,CN1CCN(C2CCSC2)CC1 (centres undefined),> 4 mM (inactive)
2,O=C(O)CCN1CCc2ccccc2C1c1ccncc1 (centres undefined),> 4 mM (inactive)
3,Cc1cc(=O)[nH]c(NCc2cccnc2)n1,> 4 mM (inactive)
4,NC(=O)CSc1ncnc2ccccc12,> 4 mM (inactive)
5,COC(=O)c1ccc2ncccc2c1,> 4 mM (inactive)
6,Cn1c(SCC(N)=O)nnc1-c1c[nH]c2ccccc12,> 4 mM (inactive)
7,CC(=O)c1c(C)nc2ccccc2c1N,> 4 mM (inactive)
8,CC1(C)CC2(C)N(N)C(=O)CN2C(=S)N1 (centres undefined),> 4 mM (inactive)
9,CC(=O)OCc1cc(=O)n(C)c(=O)n1C,> 4 mM (inactive)
10,O=C(O)c1ccc(-n2ccnc2)cc1,> 4 mM (inactive)
11,Cc1nc2ccccc2c(=O)n1CCCO,> 4 mM (inactive)
12,COc1ccc2c3c([nH]c2c1)C(C)=NCC3,> 4 mM (inactive)
13,Cc1nnc(SCC(=O)NCc2ccccc2)[nH]c1=O,> 4 mM (inactive)
14,c1ccc(-n2ncc3c(NCc4ccco4)ncnc32)cc1,> 4 mM (inactive)
15,Cc1cccc(OCc2nnc(N)s2)c1,> 4 mM (inactive)
16,Nc1nnc(Cc2ccc(Cl)cc2)s1,> 4 mM (inactive)
17,Cc1c(CO)cnn1-c1ccc(F)cc1,> 4 mM (inactive)
18,CC(=O)Nc1ccc(C(=O)n2nc(C)cc2C)cc1,> 4 mM (inactive)
19,Cc1ccccc1C(=O)Nc1cccc(N)c1,> 4 mM (inactive)
20,Cc1ncc(C[n+]2csc3ccccc32)c(N)n1,> 4 mM (inactive)
21,Cc1cc(C(=O)Nc2ccc3c(c2)OCCO3)c(C)o1,> 4 mM (inactive)
22,COc1ccc(CN2CCOCC2)c(C)c1C,> 4 mM (inactive)
23,Cn1nnc2cc(C(=O)NC3=NCCS3)ccc21,> 4 mM (inactive)
24,C=C1C2CC[C@@]3(C)[C@H](c4ccoc4)OC(=O)C[C@]13O[C@H]1CC(O)C(C)(C)C(CC(=O)OC)[C@@]21C (some centres undefined),> 4 mM (inactive)
25,O=c1c2ccccc2ncn1C1CCCCC1,> 4 mM (inactive)

row,SMILES,Kd
1,NC(=O)CSc1nnc2ccc3ccccc3n12,> 4 mM (inactive)
2,Oc1cc(O)cc(/C=C/c2ccccc2)c1,> 4 mM (inactive)
3,CN1CCN(C(=O)c2ccccc2N)CC1,> 4 mM (inactive)
4,Nc1cccc(S(N)(=O)=O)c1,> 4 mM (inactive)
5,O=C(NCC1CCNCC1)c1ccccn1,> 4 mM (inactive)
6,Fc1ccc(Br)cc1/C=N/n1cnnc1,> 4 mM (inactive)
7,COc1cc(C(=S)N2CCCC2)cc(Cl)c1O,> 4 mM (inactive)
8,NC(=O)CSCc1ccc(Br)cc1,> 4 mM (inactive)
9,O=c1ccn([C@@H]2O[C@H](COP(=O)(O)OP(=O)(O)OP(=O)(O)O)[C@@H](O)[C@H]2O)c(=O)[nH]1,> 4 mM (inactive)
10,O=C(Cn1cncn1)c1ccc(F)c(F)c1,> 4 mM (inactive)
11,Cn1cccc1C(=O)NS(=O)(=O)c1ccccc1Cl,> 4 mM (inactive)
12,CC(C(N)=O)N1C(=O)c2ccccc2C1=O (centres undefined),> 4 mM (inactive)
13,Cc1sc(N)c(C(N)=O)c1C,> 4 mM (inactive)
14,CCOC(=O)c1c(-c2ccncc2)csc1N,> 4 mM (inactive)
15,CC(=O)c1c(C)nn(CC(=O)O)c1C,> 4 mM (inactive)
16,CS/C(N)=C\C(C)=O,> 4 mM (inactive)
17,O=C(NC1=NCCS1)c1cccc(F)c1,> 4 mM (inactive)
18,O=C(O)c1ccc(N2CCCCC2)cc1,> 4 mM (inactive)
19,O=C(O)c1ccccc1C(=O)Nc1ccccc1,> 4 mM (inactive)
20,O=C1NC(=S)N/C1=C\c1cccnc1,> 4 mM (inactive)
21,CCOC(=O)c1c(C)nc2c(C#N)cnn2c1C,> 4 mM (inactive)
22,COCc1cc(=O)oc2cc(N)ccc12,> 4 mM (inactive)
23,C=C1C(=O)OC2CC1C(OC(C)=O)C/C(C)=C/CC/C(C)=C/CC[C@]2(C)O (some centres undefined),> 4 mM (inactive)
24,COCCn1cnc2cc(C)c(C)cc21,> 4 mM (inactive)
25,CN(C)C(=O)Oc1cccc(-c2nnco2)c1,> 4 mM (inactive)

row,SMILES,Kd
1,Cc1cc(C)n(S(=O)(=O)c2ccc(C(C)(C)C)cc2)n1,> 4 mM (inactive)
2,CC(=O)Nc1nnc(-c2ccncc2)s1,> 4 mM (inactive)
3,CCCc1cc(=O)[nH]c2nnc(SCC(C)=O)n12,> 4 mM (inactive)
4,CC(=O)Nn1cc2c(=O)n(C)c(=O)n(C)c2c1,> 4 mM (inactive)
5,O=C(/C=C/c1ccccc1)NC1CCS(=O)(=O)C1 (centres undefined),> 4 mM (inactive)
6,O=C(O)CC1NCCNC1=O (centres undefined),> 4 mM (inactive)
7,NCc1nnnn1-c1ccccc1,> 4 mM (inactive)
8,OCCNc1ccccn1,> 4 mM (inactive)
9,CC(=O)CS(=O)(=O)c1ccccc1,> 4 mM (inactive)
10,COc1ccc2c(c1)c1n[nH]c(=S)nc1n2C,> 4 mM (inactive)
11,CN(C)C(=O)CSc1nc2ccccc2c(=O)[nH]1,> 4 mM (inactive)
12,COc1ccccc1NC(=O)C1CCCCC1,> 4 mM (inactive)
13,COc1ncnc(N)c1[N+](=O)[O-],> 4 mM (inactive)
14,Cc1noc(C)c1C(=O)Nc1ccc2c(c1)CCC2,> 4 mM (inactive)
15,O=C(CSc1nnc2ccccn12)N1CCOCC1,> 4 mM (inactive)
16,Nc1nnc(SCc2cccnc2)s1,> 4 mM (inactive)
17,O=c1[nH]c2ccc(S(=O)(=O)NC3CC3)cc2[nH]1,> 4 mM (inactive)
18,OCCNC(=S)Nc1ccc(F)cc1,> 4 mM (inactive)
19,OCCCc1nc2ccc(C(F)(F)F)cc2[nH]1,> 4 mM (inactive)
20,O=C(O)c1ccc2ncccc2c1,> 4 mM (inactive)
21,O=C(O)CN1C(=O)c2ccc(C(=O)O)cc2C1=O,> 4 mM (inactive)
22,Cc1cc(C)n(CCC(=O)O)n1,> 4 mM (inactive)
23,COC(=O)c1noc(C)c1C(C)=O,> 4 mM (inactive)
24,CN1CCC(N(C)C2CCN(C)CC2)CC1,> 4 mM (inactive)
25,Cc1ccc(-c2nc(-c3cccnc3)no2)cc1,> 4 mM (inactive)

row,SMILES,Kd
1,NC(=O)Cn1cnc(-c2ccc(F)cc2)c1,> 4 mM (inactive)
2,O=c1oc(-c2ccccc2)nc2c1cnn2-c1ccccc1,> 4 mM (inactive)
3,O=C(NC1CCS(=O)(=O)C1)C1CCCCC1 (centres undefined),> 4 mM (inactive)
4,C[C@@H]1C(=O)O[C@H]2[C@H]1CC[C@@]1(C)C=CC(=O)[C@@]3(C)O[C@@]213,> 4 mM (inactive)
5,CCOC(=O)c1c(C)cc(O)c(C)c1O,> 4 mM (inactive)
6,O=C(O)CSc1nc2ccccc2c(=O)[nH]1,> 4 mM (inactive)
7,CN1CCC(NC(=O)Cc2c(F)cccc2Cl)CC1,> 4 mM (inactive)
8,O=C(NCO)c1ccccc1Cl,> 4 mM (inactive)
9,CCOC(=O)c1cc2ccccc2oc1=O,> 4 mM (inactive)
10,Cn1c(=O)c2[nH]c(Nc3ccccc3)nc2n(C)c1=O,> 4 mM (inactive)
11,O=C(O)CCC(=O)NCc1cccnc1,> 4 mM (inactive)
12,c1cncc(Nc2nc(-c3cccnc3)cs2)c1,> 4 mM (inactive)
13,O=c1[nH]c(N2CCOCC2)nc2ccccc12,> 4 mM (inactive)
14,C=C[C@@]1(C)CC(=O)[C@@]2(O)[C@](C)(O1)[C@@H](OC(C)=O)[C@@H](O)C1C(C)(C)CC[C@H](O)[C@@]12C (some centres undefined),> 4 mM (inactive)
15,Cn1ncc(C(=O)O)c1-c1ccccc1,> 4 mM (inactive)
16,COc1cc(OC)c2c(=O)c(O)c(-c3ccc(OC)c(OC)c3)oc2c1,> 4 mM (inactive)
17,Cc1c(/C=N\n2cnnc2)c2ccccc2n1C,> 4 mM (inactive)
18,Cc1nc2ccc(NC(=O)N3CCSCC3)cc2s1,> 4 mM (inactive)
19,CC(=O)O[C@H]1C[C@@H](OC(C)=O)C(C)(C)C2C[C@@H](OC(C)=O)[C@]3(C)C(CC[C@@]4(C)[C@H](c5ccoc5)OC(=O)[C@H]5O[C@]543)[C@]21C (some centres undefined),> 4 mM (inactive)
20,NCc1ccc2occc2c1,> 4 mM (inactive)
21,CCC1=Nc2ccccc2-c2nnc(SC)nc2O1,> 4 mM (inactive)
22,O=c1cc(-c2ccccc2)oc2cc(O)c(O)c(O)c12,> 4 mM (inactive)
23,Cc1cc(NC(=O)Cc2c(F)cccc2Cl)no1,> 4 mM (inactive)
24,Cc1cc(=O)cc(C)n1-c1ccccc1N,> 4 mM (inactive)
25,NS(=O)(=O)c1ccc(N=Cc2cccs2)cc1,> 4 mM (inactive)

row,SMILES,Kd
1,COc1c2occc2cc2ccc(=O)oc12,> 4 mM (inactive)
2,CN(Cc1nc2ccccc2n1C)S(C)(=O)=O,> 4 mM (inactive)
3,CC[C@]12CCCN3CCc4c(n(c5ccccc45)[C@](O)(C(=O)OC)C1)[C@@H]32,> 4 mM (inactive)
4,O=C1OCCC1Sc1nc2ccccc2c(=O)[nH]1 (centres undefined),> 4 mM (inactive)
5,O=C(O)c1cc(O)c(O)c(O)c1,> 4 mM (inactive)
6,S=c1[nH]cnc2sccc12,> 4 mM (inactive)
7,CC(=O)OC1CCC2(O)CC1(C)CCC1C2CC1(C)C (centres undefined),> 4 mM (inactive)
8,Cn1c(CSc2nc3ccccc3s2)n[nH]c1=S,> 4 mM (inactive)
9,COc1ccc(-c2coc3c(O)c(OC)ccc3c2=O)cc1,> 4 mM (inactive)
10,N#Cc1cc(-c2ccccc2)oc1N,> 4 mM (inactive)
11,CCCCCC1C(=O)CCC1CC(=O)OC (centres undefined),> 4 mM (inactive)
12,O=C(O)CCCCCCCCCCCCC1C=CCC1 (centres undefined),> 4 mM (inactive)
13,COc1ccc(/C=C2/NC(=S)NC2=O)cc1,> 4 mM (inactive)
14,CCN1CCC(=NO)CC1,> 4 mM (inactive)
15,C=C[C@](C)(O)CCC=C(C)C,> 4 mM (inactive)
16,C=CC(=O)N1CC2CC(C1)c1cccc(=O)n1C2 (centres undefined),> 4 mM (inactive)
17,O=C(O)c1snnc1-c1ccccc1,> 4 mM (inactive)
18,Cc1[nH]c2ccccc2c(=O)c1CO,> 4 mM (inactive)
19,O=C1c2cccnc2C(=O)N1Cc1ccc2c(c1)OCO2,> 4 mM (inactive)
20,c1ccc(-c2noc(-c3cccnc3)n2)nc1,> 4 mM (inactive)
21,NCC1CN(Cc2ccccc2)CCO1 (centres undefined),> 4 mM (inactive)
22,NC(=O)Cc1nc(-c2ccc(F)cc2)cs1,> 4 mM (inactive)
23,CCC(CCC(C)[C@H]1CCC2C3CC=C4C[C@@H](O)CC[C@]4(C)C3CC[C@@]21C)C(C)C (some centres undefined),> 4 mM (inactive)
24,O=C(O)c1ccc2snnc2c1,> 4 mM (inactive)
